Source: article PMC10379611 (International Journal of Molecular Sciences, 2023)
Several values for one entry are separate records, joined by “and”; a condition that tells them apart may be missing. Equal values may be shown once. Entries after “also recorded” stand apart in the source; their conditions may differ.

Legend:
ABCC4 (MRP4) = target: T1, ABCC4 (MRP4) (Homo sapiens, UniProt O15439); experiment: ABCC4 vesicular transport (DHEAS), HEK293 inverted membrane vesicles; type: biochemical; details: concentrations up to 200 μM
T1 construct: purchased Solvo Biotechnology, Budapest; host or cells: HEK293
T1 sequence (O15439 1-1325): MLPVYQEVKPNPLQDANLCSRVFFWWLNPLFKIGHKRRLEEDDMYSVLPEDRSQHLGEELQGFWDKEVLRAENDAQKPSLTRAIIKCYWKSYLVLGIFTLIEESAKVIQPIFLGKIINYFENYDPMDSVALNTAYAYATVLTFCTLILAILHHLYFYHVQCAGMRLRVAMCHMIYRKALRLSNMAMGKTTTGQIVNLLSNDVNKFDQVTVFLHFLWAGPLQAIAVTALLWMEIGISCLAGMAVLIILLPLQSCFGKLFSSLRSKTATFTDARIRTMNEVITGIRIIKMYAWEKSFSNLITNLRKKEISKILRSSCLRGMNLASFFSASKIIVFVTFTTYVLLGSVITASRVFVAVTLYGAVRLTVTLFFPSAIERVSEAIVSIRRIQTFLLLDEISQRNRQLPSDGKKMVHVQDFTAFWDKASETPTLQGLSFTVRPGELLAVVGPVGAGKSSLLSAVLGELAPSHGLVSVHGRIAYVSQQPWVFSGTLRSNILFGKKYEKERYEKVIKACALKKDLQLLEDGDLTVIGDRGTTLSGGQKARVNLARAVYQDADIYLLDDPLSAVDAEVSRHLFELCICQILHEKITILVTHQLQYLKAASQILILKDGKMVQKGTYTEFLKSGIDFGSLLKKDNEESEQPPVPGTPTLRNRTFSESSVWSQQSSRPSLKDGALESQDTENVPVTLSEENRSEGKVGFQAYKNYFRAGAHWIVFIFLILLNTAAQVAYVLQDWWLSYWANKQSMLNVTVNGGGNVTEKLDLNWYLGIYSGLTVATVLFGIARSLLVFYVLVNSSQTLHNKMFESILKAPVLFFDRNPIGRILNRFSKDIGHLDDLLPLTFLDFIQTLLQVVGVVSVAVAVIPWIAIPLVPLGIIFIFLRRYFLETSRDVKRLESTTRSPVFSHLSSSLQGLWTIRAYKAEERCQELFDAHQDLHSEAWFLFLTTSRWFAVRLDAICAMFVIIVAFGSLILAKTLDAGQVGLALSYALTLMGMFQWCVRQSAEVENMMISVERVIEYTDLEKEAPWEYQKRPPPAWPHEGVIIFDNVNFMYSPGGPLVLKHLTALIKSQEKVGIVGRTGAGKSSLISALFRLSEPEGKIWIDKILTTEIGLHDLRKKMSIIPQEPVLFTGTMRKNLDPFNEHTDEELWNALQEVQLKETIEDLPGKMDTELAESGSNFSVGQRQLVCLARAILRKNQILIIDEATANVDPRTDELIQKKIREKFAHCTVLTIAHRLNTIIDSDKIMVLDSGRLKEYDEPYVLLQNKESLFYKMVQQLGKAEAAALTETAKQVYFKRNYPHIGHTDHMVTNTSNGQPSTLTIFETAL

OATP1B3 = details: read-out: IC50 for OATP1B3; cited from earlier work
[1] = cited from earlier work
OATP1B1 = details: read-out: IC50 of OATP1B1; rosuvastatin transport; cited from earlier work
SARS-CoV-2 = tested on: SARS-CoV-2; design: method as in PMID 34726479; details: cell culture tests; cited from earlier work
ABCB1 = ABCB1 (Homo sapiens, UniProt P08183); experiment: ABCB1 ATPase activity in Sf9 membrane vesicles; type: biochemical; design: purchased Solvo Biotechnology, Budapest; details: insect cell membrane vesicles
Chain of ABCB1 (P08183 whole entry): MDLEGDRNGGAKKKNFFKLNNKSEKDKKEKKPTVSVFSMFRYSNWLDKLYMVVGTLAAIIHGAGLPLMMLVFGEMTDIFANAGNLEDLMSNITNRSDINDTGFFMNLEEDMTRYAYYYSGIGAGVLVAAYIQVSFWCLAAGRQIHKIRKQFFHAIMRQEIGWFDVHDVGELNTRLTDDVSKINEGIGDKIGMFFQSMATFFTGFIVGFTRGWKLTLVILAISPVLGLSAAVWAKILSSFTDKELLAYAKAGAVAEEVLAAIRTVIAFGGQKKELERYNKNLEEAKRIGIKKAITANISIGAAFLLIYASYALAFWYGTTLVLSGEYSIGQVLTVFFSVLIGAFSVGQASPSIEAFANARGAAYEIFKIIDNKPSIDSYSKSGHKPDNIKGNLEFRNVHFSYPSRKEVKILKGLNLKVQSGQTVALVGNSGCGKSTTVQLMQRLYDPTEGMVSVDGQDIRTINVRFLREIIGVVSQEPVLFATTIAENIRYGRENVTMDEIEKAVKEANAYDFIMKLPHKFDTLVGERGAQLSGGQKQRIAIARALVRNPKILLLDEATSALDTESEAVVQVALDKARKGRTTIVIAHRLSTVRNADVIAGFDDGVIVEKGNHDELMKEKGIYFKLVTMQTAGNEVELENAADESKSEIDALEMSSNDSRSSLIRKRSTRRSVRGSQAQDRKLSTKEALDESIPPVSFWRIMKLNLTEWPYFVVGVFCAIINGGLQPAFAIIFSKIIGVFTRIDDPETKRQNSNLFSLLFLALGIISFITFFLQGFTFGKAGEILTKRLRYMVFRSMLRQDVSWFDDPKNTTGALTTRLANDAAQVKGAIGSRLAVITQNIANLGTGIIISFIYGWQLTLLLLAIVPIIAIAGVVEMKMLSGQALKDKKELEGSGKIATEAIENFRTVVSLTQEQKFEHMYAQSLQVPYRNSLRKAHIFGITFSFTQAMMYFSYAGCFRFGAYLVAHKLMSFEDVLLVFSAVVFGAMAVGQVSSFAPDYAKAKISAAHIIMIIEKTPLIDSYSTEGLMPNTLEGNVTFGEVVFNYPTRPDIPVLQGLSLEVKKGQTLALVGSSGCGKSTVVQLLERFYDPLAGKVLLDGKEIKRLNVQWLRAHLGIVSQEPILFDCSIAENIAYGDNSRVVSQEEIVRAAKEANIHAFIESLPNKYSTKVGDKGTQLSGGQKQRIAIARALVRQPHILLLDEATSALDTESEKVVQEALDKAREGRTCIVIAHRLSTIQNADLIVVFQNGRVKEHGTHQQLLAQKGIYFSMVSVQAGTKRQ
Experimental: (§1) ATPase activity was measured in Sf9 membrane vesicles containing the respective human ABC transporters, as described in our earlier work. For ABCG2, the cholesterol level in the vesicles was increased to the level of mammalian cell membranes to obtain full activity. In brief, membrane vesicles (5 μg protein/sample) were incubated with 3 mM Mg-ATP and various concentrations of test compounds. Background ATPase activity of membranes was determined by applying the general ABC transporter inhibitor sodium orthovanadate (1 mM). Measurements were carried out for 20 min at 37 °C. The amount of phosphate liberated from ATP was detected using a colorimetric method and a VictorX3 plate reader at 660 nm Abs. Reference activators (50 µM verapamil for ABCB1 and 1 µM quercetin for ABCG2) served as positive controls.

ABCG2 = target: T2, ABCG2 (Homo sapiens, UniProt Q9UNQ0); experiment: ABCG2 ATPase activity in Sf9 membrane vesicles; type: biochemical; design: purchased Solvo Biotechnology, Budapest; details: insect cell membrane vesicles
T2 sequence (Q9UNQ0 1-655): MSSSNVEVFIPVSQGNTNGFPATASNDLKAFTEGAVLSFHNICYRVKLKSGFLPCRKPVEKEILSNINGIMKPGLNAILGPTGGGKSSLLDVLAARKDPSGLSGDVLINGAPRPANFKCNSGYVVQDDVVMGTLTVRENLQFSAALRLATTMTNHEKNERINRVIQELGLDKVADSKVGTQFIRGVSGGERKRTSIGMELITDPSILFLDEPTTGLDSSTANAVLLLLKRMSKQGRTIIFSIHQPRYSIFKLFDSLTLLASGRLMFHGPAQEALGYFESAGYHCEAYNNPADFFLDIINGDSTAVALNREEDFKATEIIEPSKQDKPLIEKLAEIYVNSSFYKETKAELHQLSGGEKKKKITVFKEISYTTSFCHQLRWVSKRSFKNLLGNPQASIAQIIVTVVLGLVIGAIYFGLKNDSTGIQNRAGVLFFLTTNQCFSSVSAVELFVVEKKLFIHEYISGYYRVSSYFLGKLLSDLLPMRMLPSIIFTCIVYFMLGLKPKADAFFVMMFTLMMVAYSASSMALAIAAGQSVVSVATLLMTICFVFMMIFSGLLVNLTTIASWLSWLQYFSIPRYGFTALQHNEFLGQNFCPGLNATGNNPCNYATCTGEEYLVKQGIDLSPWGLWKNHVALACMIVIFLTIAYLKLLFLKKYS
Experimental: as §1

SMILES | effect on ATP-dependent DHEAS uptake by ABCC4/MRP4 (ABCC4 (MRP4)) | IC50 (OATP1B3) | plasma peak concentration ([1]; Paxlovid 300 mg Nirmatrelvir and 100 mg Ritonavir twice daily, listed as NIR) | observed plasma concentrations ([1]; recommended clinical dose of Paxlovid) | IC50 (OATP1B1) | antiviral activity against SARS-CoV-2 (SARS-CoV-2) | effect on transport-coupled ATPase activity of ABCB1 (ABCB1) | effect on ATPase activity of ABCG2 (ABCG2)
O=c1nc(NO)ccn1[C@@H]1O[C@H](CO)[C@@H](O)[C@H]1O [EIDD-1931] | no significant effects |  |  |  |  |  |  | 
CC(C)C(=O)OC[C@H]1O[C@@H](n2ccc(NO)nc2=O)[C@H](O)[C@@H]1O [EIDD-2801, Molnupiravir] | no significant effects |  |  |  |  |  |  | 
CC(C)(C)[C@H](NC(=O)C(F)(F)F)C(=O)N1C[C@H]2[C@@H]([C@H]1C(=O)N[C@H](C#N)C[C@@H]1CCNC1=O)C2(C)C [Nirmatrelvir] |  | […] | […] | […] | […] | nanomolar range | significantly increased; also recorded: stimulated | no such effect
